In patent publication US20260373119A1, “NOVEL COMPOUND, AND COMPOSITION FOR PREVENTING OR TREATING HER2-POSITIVE CANCER, COMPRISING SAME” (EWHA UNIVERSITY - INDUSTRY COLLABORATION FOUNDATION, priority 2022, published 2026):

Columns and labels:
Type in all cases: cell-based
[1] = test system: T47D (HER2-negative breast cancer cell line); test: antiproliferative effect, T47D; conditions: Homo sapiens, 72 hours
Description: (§1) The antiproliferative effects were measured after treating Compounds 1 to 22 for 72 hours on HCT15 (HER2-positive colorectal cancer cell line), NCI-N87 (HER2-positive gastric cancer cell line), T47D (HER2-negative breast cancer cell line), and HeLa (HER2-negative cervical cancer cell line). As a result, strong antiproliferative effects were generally observed in the NCI-N87 cell line (Table 2).
(§2) The antiproliferative effects of the candidate compound, resulting from HER2 inhibition, were evaluated. Specifically, to confirm the anticancer effects of the candidate compound, cancer cells were seeded at a density of 10^4 cells/well in a 96-well cell culture plate for 20 hours. The cells were starved in serum-free media for 4 hours, followed by replacement with media containing the compound at specified concentrations. The cells were then incubated for 72 hours under conditions of 5% CO2 at 37 °C. Cell viability was determined by adding 5 μL of EZ-CytoX to each well and measuring absorbance at 450 nm. The measurements were performed using an ELISA Microplate Reader (VersaMax, Molecular Devices).

[2] = target: T1, ELF3-MED23 protein-protein interaction (Homo sapiens, UniProt Q9ULK4); test: SEAP reporter assay, ELF3-MED23 PPI inhibition (293T kidney cells); conditions: HEK-293T; 10 μM
T1 construct: followed by the addition of either the candidate compound or MED23 protein constructs; endogenous in cells; host or cells: 293T kidney cells (MED23 endogenous; GAL4-ELF3 transfected)
T1 sequence (Q9ULK4 1-1368): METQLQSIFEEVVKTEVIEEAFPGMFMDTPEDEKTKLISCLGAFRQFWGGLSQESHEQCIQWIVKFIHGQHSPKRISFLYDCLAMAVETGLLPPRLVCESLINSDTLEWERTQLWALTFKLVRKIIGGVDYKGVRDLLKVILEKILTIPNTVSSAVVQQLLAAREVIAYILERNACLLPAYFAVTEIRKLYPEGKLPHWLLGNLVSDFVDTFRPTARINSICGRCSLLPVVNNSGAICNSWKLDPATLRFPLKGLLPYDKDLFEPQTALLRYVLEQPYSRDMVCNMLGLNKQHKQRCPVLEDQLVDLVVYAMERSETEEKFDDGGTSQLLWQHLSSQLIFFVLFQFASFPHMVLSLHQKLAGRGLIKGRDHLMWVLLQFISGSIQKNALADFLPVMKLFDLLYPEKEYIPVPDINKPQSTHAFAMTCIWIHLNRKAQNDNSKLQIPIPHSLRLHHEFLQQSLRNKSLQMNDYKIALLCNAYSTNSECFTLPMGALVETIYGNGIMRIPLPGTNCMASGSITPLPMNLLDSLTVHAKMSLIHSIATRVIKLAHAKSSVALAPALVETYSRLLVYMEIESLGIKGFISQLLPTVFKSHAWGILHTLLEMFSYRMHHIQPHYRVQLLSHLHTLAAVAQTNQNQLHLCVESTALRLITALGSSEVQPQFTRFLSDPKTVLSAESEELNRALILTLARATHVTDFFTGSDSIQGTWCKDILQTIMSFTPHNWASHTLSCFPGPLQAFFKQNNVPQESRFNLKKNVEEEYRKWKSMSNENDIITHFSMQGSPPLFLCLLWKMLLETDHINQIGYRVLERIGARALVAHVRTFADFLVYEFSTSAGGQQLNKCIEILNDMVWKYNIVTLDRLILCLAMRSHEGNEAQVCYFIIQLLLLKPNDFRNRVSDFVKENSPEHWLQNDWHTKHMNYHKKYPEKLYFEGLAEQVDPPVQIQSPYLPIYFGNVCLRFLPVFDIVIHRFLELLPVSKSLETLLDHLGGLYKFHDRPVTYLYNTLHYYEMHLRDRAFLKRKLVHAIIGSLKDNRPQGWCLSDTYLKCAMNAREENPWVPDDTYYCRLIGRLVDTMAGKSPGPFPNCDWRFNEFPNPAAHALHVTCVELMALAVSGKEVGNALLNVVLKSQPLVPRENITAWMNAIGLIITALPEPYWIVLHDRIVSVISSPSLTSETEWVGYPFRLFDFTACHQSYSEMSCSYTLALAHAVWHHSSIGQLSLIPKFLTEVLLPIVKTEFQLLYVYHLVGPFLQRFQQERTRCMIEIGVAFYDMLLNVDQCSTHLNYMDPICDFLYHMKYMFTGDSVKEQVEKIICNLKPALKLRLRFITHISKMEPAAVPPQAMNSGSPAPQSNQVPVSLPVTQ
Description: To verify whether the D400 and H449 residues play a critical role in the ELF3-MED23 protein-protein interaction, a SEAP assay was performed. Specifically, 293T kidney cells were seeded at a density of 5×10^3 cells/well in a 96-well microplate (SPL, Korea) and cultured overnight. Subsequently, the cells were co-transfected with 100 ng of each plasmid using transfection-optimized medium (Welgene, Korea). The plasmids used included the SEAP reporter gene (pG5IL2SX) and GAL4-ELF3 expression vector (pBJ GAL4-ELF3). For transfection, the cells were incubated with WelFectQ (Welgene, Korea) for 3 hours, followed by the addition of either the candidate compound or MED23 protein constructs (pcDNA MED23^WT, K397A, D400A, H449G, and D400A/H449G). The treated cells were incubated for 12 hours. The candidate compound was added in an incubator at 5% CO2 and 37 °C, and the plate was incubated at 65 °C for 3 hours to inactivate all enzymes except SEAP (Secreted Alkaline Phosphatase). A mixture comprising 100 μL of substrate solution prepared with 1.19 μL of 0.1 M 4-methylumbelliferyl phosphate (Sigma, USA), 25 μL of inactivated medium, and 75 μL of double-distilled water was added, followed by the addition of 98.81 μL of 2 M diethanolamine (pH 10, Sigma, USA). The plate was incubated overnight at 37 °C. Subsequently, the fluorescence intensity was measured using a fluorometer (SPECTRAmax […], Molecular Devices, USA) at an excitation wavelength of 360 nm and an emission wavelength of 440 nm.
To further elaborate on the above findings, small molecule compounds that could affect the ELF3-MED23 PPI were designed and synthesized. Specifically, non-essential side chains were removed from gefitnib, and compounds were designed to include both hydrogen bond donors and acceptors for the D400 and H449 residues of MED23, respectively (FIG. 4A). Specifically, chalcones and pyrazolines were selected as core scaffolds, and 25 compounds (11 chalcones and 14 pyrazoline-based compounds) were prepared. The ELF3-MED23 PPI inhibitory activity of all prepared compounds was measured using a SEAP assay.

[3] = test system: NCI-N87 (HER2-positive gastric cancer cell line); test: antiproliferative effect, NCI-N87; conditions: Homo sapiens, NCI-N87; 72 hours; HER2-positive
Description: as §1, §2

[4] = test system: HCT15 (HER2-positive colorectal cancer cell line); test: antiproliferative effect, HCT15; conditions: Homo sapiens, HCT-15, 72 hours
Description: as §1, §2

[5] = test system: HeLa (HER2-negative cervical cancer cell line); test: antiproliferative effect, HeLa; conditions: Homo sapiens, 72 hours
Description: as §1, §2

| IC50 [1] | inhibition at 10 µM [2] | IC50 [3] | IC50 [4] | IC50 [5] | SMILES |
| --- | --- | --- | --- | --- | --- |
| 1.21 ± 0.02 µM | 70% | 3.45 ± 0.05 µM | 7.64 ± 0.09 µM | 9.73 ± 0.04 µM | COc1ccc(/C=C/C(=O)c2cccc(O)c2)c2ccccc12 [Compound 3, 1-(3-Hydroxyphenyl)-3-(4-methoxynaphthalen-1-yl)-propenone] |
| > 50 µM | 58% | > 50 µM | > 50 µM | > 50 µM | CC(=O)N1N=C(c2cccc(O)c2)CC1c1ccco1 (centres unmarked) [Compound 12, 1-[5-Furan-2-yl-3-(3-hydroxyphenyl)-4,5-dihydropyrazol-1-yl]-ethanone] |
| > 50 µM | 58% | > 50 µM | > 50 µM | > 50 µM | COc1ccc(C2CC(c3cccc(O)c3)=NN2C(C)=O)cc1 (centres unmarked) [Compound 13, 1-[3-(3-Hydroxyphenyl)-5-(4-methoxyphenyl)-4,5-dihydropyrazol-1-yl]-ethanone] |
| 5.57 ± 0.26 µM | 14% | 42.4 ± 0.86 µM | 19.5 ± 0.41 µM | 0.69 µM | COc1ccc(C2CC(c3cccc(O)c3)=NN2C(C)=O)c2ccccc12 (centres unmarked) [Compound 14, 1-[3-(3-Hydroxyphenyl)-5-(4-methoxynaphthalen-1-yl)-4,5-dihydropyrazol-1-yl]-ethanone] |
| > 50 µM | 37% | > 50 µM | > 50 µM | > 50 µM | CC(=O)N1N=C(c2cccc(O)c2)CC1c1ccc(O)cc1 (centres unmarked) [Compound 16, 1-[5-(4-Hydroxyphenyl)-3-(3-hydroxyphenyl)-4,5-dihydropyrazol-1-yl]-ethanone] |
|  | 87% |  |  |  | CCC(=O)N1N=C(c2cccc(O)c2)CC1c1ccc(OC)cc1 (centres unmarked) [Compound 23, 1-[3-(3-Hydroxyphenyl)-5-(4-methoxyphenyl)-4,5-dihydropyrazol-1-yl]-propan-1-one] |
|  | 42% |  |  |  | CCC(=O)N1N=C(c2cccc(O)c2)CC1c1ccc(Cl)cc1 (centres unmarked) [Compound 25, 1-[5-(4-Chlorophenyl)-3-(3-hydroxyphenyl)-4,5-dihydropyrazol-1-yl]-propan-1-one] |

The remaining lines, values behind:

| SMILES | IC50 [1] | inhibition at 10 µM [2] | IC50 [3] | IC50 [4] | IC50 [5] |
| --- | --- | --- | --- | --- | --- |
| O=C(/C=C/c1ccco1)c1cccc(O)c1 [Compound 1, 3-Furan-2-yl-1-(3-hydroxyphenyl)-propenone] | 8.48 ± 0.02 µM | 86% | 13.5 ± 0.29 µM | 29.66 ± 0.14 µM | 19.5 ± 0.04 µM |
| COc1ccc(/C=C/C(=O)c2cccc(O)c2)cc1 [Compound 2, 1-(3-Hydroxyphenyl)-3-(4-methoxyphenyl)-propenone] | 18.9 ± 0.2 µM | 41% | 10.7 ± 0.31 µM | 8.51 ± 0.01 µM | 9.85 ± 0.37 µM |
| O=C(/C=C/c1ccc(Cl)cc1)c1cccc(O)c1 [Compound 4, 3-(4-Chlorophenyl)-1-(3-hydroxyphenyl)-propenone] | 17.57 ± 0.13 µM | 80% | 4.82 ± 0.1 µM | 12 ± 0.17 µM | 25.64 ± 0.09 µM |
| O=C(/C=C/c1ccc(O)cc1)c1cccc(O)c1 [Compound 5, 3-(4-Hydroxyphenyl)-1-(3-hydroxyphenyl)-propenone] | 9.04 ± 0.07 µM | 60% | 17.82 ± 0.17 µM | 8.97 ± 0.17 µM | 30.02 ± 0.18 µM |
| COc1ccc(/C=C/C(=O)c2ccccc2O)cc1 [Compound 6, 1-(2-Hydroxyphenyl)-3-(4-methoxyphenyl)-propenone] | > 50 µM | 90% | 44.9 ± 0.8 µM | > 50 µM | > 50 µM |
| COc1ccc(/C=C/C(=O)c2ccccc2O)c2ccccc12 [Compound 7, 1-(2-Hydroxyphenyl)-3-(4-methoxynaphthalen-1-yl)-propenone] | 15.56 ± 0.15 µM | 80% | 11.4 ± 0.12 µM | 14.18 ± 0.05 µM | 16.13 ± 0.08 µM |
| O=C(/C=C/c1ccco1)c1ccccc1O [Compound 8, 3-Furan-2-yl-1-(2-hydroxyphenyl)-propenone] | > 50 µM | 50% | > 50 µM | > 50 µM | 42.19 ± 0.01 µM |
| O=C(/C=C/c1ccc(O)cc1)c1ccccc1O [Compound 9, 3-(4-Hydroxyphenyl)-1-(2-hydroxyphenyl)-propenone] | 27.89 ± 0.06 µM | 50% | > 50 µM | > 50 µM | > 50 µM |
| O=C(/C=C/c1ccc(Cl)cc1)c1ccccc1O [Compound 10, 3-(4-Chlorophenyl)-1-(2-hydroxyphenyl)-propenone] | 8.96 ± 0.02 µM | 80% | 14.38 ± 0.06 µM | 14.36 ± 0.12 µM | 5.54 ± 0.21 µM |
| O=C(/C=C/c1cccs1)c1ccccc1O [Compound 11, 1-(2-Hydroxyphenyl)-3-thiophen-2-yl-propenone] | > 50 µM | 50% | 47.76 ± 0.22 µM | > 50 µM | 44.31 ± 0.11 µM |
| CC(=O)N1N=C(c2ccccc2O)CC1c1ccco1 (centres unmarked) [Compound 17, 1-[5-Furan-2-yl-3-(2-hydroxyphenyl)-4,5-dihydropyrazol-1-yl]-ethanone] | > 50 µM | 23% | > 50 µM | > 50 µM | > 50 µM |
| CCC(=O)N1N=C(c2cccc(O)c2)CC1c1cccs1 (centres unmarked) [Compound 24, 1-[3-(3-Hydroxyphenyl)-5-thiophen-2-yl-4,5-dihydropyrazol-1-yl]-propan-1-one] |  | 34% |  |  |  |
